# Reference: patent US8883799B2, “Tricyclic PI3K inhibitor compounds and methods of use” (Genentech, Inc., priority 2010, dated 2014)
# Target: T1, p110 alpha PI3K (Homo sapiens, UniProt P42336)
# T1 construct: purchased Upstate Cell Signaling Solutions, Charlottesville, Va
# Test: p110α (alpha) PI3K binding assay (fluorescence polarization; alternatively radiometric)
# Settings: read-out: IC50, Ki (μmole) PI3K, p110 alpha binding assay
# Procedure: Binding Assays: Initial polarization experiments were performed on an Analyst HT® 96-384 (Molecular Devices Corp, Sunnyvale, Calif.). […] After an incubation time of 30 minutes at room temperature, the reactions were stopped by the addition of GRP-1 and PIP3-TAMRA probe (Echelon-Inc., Salt Lake City, Utah) 100 nM and 5 nM final concentrations respectively. Read with standard cut-off filters for the rhodamine fluorophore (λex=530 nm; λem=590 nm) in 384-well black low volume Proxiplates® (PerkinElmer, Wellesley, Mass.) Fluorescence polarization values were plotted as a function of the protein concentration, and the EC50 values were obtained by fitting the data to a 4-parameter equation using KaleidaGraph® software (Synergy software, Reading, Pa.). This experiment also establishes the appropriate protein concentration to use in subsequent competition experiments with inhibitors.
# After an incubation time of 30 minutes at room temperature, the reactions were stopped by the addition of GRP-1 and PIP3-TAMRA probe (Echelon-Inc., Salt Lake City, Utah) 100 nM and 5 nM final concentrations respectively. Read with standard cut-off filters for the rhodamine fluorophore (λex=530 nm; λem=590 nm) in 384-well black low volume PROXIPLATES® (PerkinElmer, Wellesley, Mass.) Fluorescence polarization values were plotted as a function of the antagonist concentration, and the IC50 values were obtained by fitting the data to a 4-parameter equation in Assay Explorer® software (MDL, San Ramon, Calif.).
# The Formula I compound was serially diluted in 100% DMSO. The kinase reaction was incubated for 1 hr at room temperature, and the reaction was terminated by the addition of PBS. IC50 values were subsequently determined using sigmoidal dose-response curve fit (variable slope).
# T1 sequence (P42336 whole entry): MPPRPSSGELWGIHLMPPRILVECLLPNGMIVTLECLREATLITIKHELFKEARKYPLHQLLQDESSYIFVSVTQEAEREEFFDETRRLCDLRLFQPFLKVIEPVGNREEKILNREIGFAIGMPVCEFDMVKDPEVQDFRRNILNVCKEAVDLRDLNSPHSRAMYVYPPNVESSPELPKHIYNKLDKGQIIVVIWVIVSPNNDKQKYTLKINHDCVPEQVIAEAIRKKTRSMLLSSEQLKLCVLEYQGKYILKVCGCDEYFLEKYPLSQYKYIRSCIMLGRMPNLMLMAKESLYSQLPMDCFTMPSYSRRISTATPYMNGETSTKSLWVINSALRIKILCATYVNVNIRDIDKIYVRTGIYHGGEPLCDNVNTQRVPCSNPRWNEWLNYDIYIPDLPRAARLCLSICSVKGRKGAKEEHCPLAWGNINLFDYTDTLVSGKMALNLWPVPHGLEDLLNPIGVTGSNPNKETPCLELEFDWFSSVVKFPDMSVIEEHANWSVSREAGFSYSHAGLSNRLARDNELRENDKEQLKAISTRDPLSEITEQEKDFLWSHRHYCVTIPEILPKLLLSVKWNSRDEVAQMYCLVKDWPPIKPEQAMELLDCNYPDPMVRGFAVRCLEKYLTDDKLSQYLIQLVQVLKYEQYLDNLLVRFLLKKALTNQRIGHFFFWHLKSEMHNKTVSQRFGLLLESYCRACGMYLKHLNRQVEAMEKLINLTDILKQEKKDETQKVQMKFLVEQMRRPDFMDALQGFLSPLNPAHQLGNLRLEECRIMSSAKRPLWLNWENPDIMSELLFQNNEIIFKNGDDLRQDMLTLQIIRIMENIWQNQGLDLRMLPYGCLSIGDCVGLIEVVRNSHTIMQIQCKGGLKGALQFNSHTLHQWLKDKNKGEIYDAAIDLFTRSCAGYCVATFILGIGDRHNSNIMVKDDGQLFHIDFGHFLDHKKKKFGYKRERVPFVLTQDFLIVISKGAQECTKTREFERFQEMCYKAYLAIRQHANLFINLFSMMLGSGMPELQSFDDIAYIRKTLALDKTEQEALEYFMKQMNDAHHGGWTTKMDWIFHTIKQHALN
# T1 sequence (P27986 whole entry partner): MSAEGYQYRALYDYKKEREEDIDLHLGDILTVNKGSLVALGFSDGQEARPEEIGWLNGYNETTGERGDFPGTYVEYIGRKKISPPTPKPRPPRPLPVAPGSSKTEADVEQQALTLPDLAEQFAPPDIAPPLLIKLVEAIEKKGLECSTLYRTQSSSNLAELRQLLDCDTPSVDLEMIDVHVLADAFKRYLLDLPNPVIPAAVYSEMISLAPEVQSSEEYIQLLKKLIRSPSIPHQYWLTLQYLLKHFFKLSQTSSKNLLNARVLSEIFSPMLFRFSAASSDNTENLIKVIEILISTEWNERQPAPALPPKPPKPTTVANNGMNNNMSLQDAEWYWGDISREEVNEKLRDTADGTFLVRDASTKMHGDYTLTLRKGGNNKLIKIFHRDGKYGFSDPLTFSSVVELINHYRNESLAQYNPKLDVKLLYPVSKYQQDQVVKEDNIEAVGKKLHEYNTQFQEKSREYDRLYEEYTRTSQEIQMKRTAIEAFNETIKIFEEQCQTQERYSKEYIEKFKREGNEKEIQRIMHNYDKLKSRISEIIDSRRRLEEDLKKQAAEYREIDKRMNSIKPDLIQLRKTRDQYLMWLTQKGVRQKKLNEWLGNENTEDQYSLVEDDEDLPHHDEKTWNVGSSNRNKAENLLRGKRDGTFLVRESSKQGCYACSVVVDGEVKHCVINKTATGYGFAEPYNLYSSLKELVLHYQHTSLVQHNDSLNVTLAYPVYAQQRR
row,SMILES,IC50 [nM]
1,"CC1(C)OCCn2c1nc1c(N3CCOCC3)nc(-c3ccc(C#N)cc3)nc12 [Compound 151, 4-(6,6-dimethyl-4-morpholino-8,9-dihydro-6H-[1,4]oxazino[3,4-e]purin-2-yl)benzonitrile]",> 695
2,"CC1(C)OCCn2c1nc1c(N3CCOCC3)nc(-c3cccc(C(=O)NC4CC4)c3)nc12 [Compound 162, N-cyclopropyl-3-(6,6-dimethyl-4-morpholino-8,9-dihydro-6H-[1,4]oxazino[3,4-e]purin-2-yl)benzamide]",> 695
3,"CN(C(=O)OC(C)(C)C)c1ccc(-c2nc(N3CCOCC3)c3nc4n(c3n2)CCOC4(C)C)cc1 [Compound 143, tert-butyl 4-(6,6-dimethyl-4-morpholino-8,9-dihydro-6H-[1,4]oxazino[3,4-e]purin-2-yl)phenyl(methyl)carbamate]",> 695
4,"Cc1n[nH]c(C)c1-c1nc(N2CCOCC2)c2nc3n(c2n1)CCOC3(C)C [Compound 136, 2-(3,5-dimethyl-1H-pyrazol-4-yl)-6,6-dimethyl-4-morpholino-8,9-dihydro-6H-[1,4]oxazino[3,4-e]purine]",> 695
5,"CC(=O)Nc1ccccc1-c1nc(N2CCOCC2)c2nc3n(c2n1)CCOC3(C)C [Compound 135, N-(2-(6,6-dimethyl-4-morpholino-8,9-dihydro-6H-[1,4]oxazino[3,4-e]purin-2-yl)phenyl)acetamide]",> 695
6,"CC1(C)OCCn2c1nc1c(N3CCOCC3)nc(-c3ccc4[nH]ncc4c3)nc12 [Compound 129, 2-(1H-indazol-5-yl)-6,6-dimethyl-4-morpholino-8,9-dihydro-6H-[1,4]oxazino[3,4-e]purine]",> 695
7,"CC1(C)OCCn2c1nc1c(N3CCOCC3)nc(-c3cccc(CN4CCOCC4)c3)nc12 [Compound 146, 6,6-dimethyl-4-morpholino-2-(3-(morpholinomethyl)phenyl)-8,9-dihydro-6H-[1,4]oxazino[3,4-e]purine]",> 695
8,"CNC(=O)c1ccc(-c2nc(N3CCOCC3)c3nc4n(c3n2)CCOC4(C)C)cn1 [Compound 153, 5-(6,6-dimethyl-4-morpholino-8,9-dihydro-6H-[1,4]oxazino[3,4-e]purin-2-yl)-N-methylpicolinamide]",> 695
9,"CC1(C)OCCn2c1nc1c(N3CCOCC3)nc(-c3cnn(Cc4ccccc4)c3)nc12 [Compound 133, 2-(1-benzyl-1H-pyrazol-4-yl)-6,6-dimethyl-4-morpholino-8,9-dihydro-6H-[1,4]oxazino[3,4-e]purine]",> 695
10,"CCn1cc(-c2nc(N3CCOCC3)c3nc4n(c3n2)CCOC4(C)C)cn1 [Compound 141, 2-(1-ethyl-1H-pyrazol-4-yl)-6,6-dimethyl-4-morpholino-8,9-dihydro-6H-[1,4]oxazino[3,4-e]purine]",> 695
11,"Cn1cc(-c2nc(N3CCOCC3)c3nc4n(c3n2)CCOC4(C)C)cn1 [Compound 127, 6,6-dimethyl-2-(1-methyl-1H-pyrazol-4-yl)-4-morpholino-8,9-dihydro-6H-[1,4]oxazino[3,4-e]purine]",> 695
12,"CC1(C)OCCn2c1nc1c(N3CCOCC3)nc(-c3ccc(OCc4ccccc4)cc3)nc12 [Compound 154, 2-(4-(benzyloxy)phenyl)-6,6-dimethyl-4-morpholino-8,9-dihydro-6H-[1,4]oxazino[3,4-e]purine]",> 695
13,"CN(C)c1cccc(-c2nc(N3CCOCC3)c3nc4n(c3n2)CCOC4(C)C)c1 [Compound 155, 3-(6,6-dimethyl-4-morpholino-8,9-dihydro-6H-[1,4]oxazino[3,4-e]purin-2-yl)-N,N-dimethylaniline]",> 695
14,"CC(C)Oc1ncccc1-c1nc(N2CCOCC2)c2nc3n(c2n1)CCOC3(C)C [Compound 134, 2-(2-isopropoxypyridin-3-yl)-6,6-dimethyl-4-morpholino-8,9-dihydro-6H-[1,4]oxazino[3,4-e]purine]",> 695
15,"CC1(C)OCCn2c1nc1c(N3CCOCC3)nc(-c3cccc(OCc4ccccc4)c3)nc12 [Compound 147, 2-(3-(benzyloxy)phenyl)-6,6-dimethyl-4-morpholino-8,9-dihydro-6H-[1,4]oxazino[3,4-e]purine]",> 695
16,"CC1(C)OCCn2c1nc1c(N3CCOCC3)nc(-c3ccc(N4CCCCC4)cc3)nc12 [Compound 157, 6,6-dimethyl-4-morpholino-2-(4-(piperidin-1-yl)phenyl)-8,9-dihydro-6H-[1,4]oxazino[3,4-e]purine]",> 695
17,"CN(C)C(=O)c1ccc(-c2nc(N3CCOCC3)c3nc4n(c3n2)CCOC4(C)C)cc1 [Compound 142, 4-(6,6-dimethyl-4-morpholino-8,9-dihydro-6H-[1,4]oxazino[3,4-e]purin-2-yl)-N,N-dimethylbenzamide]",> 695
18,"CC1(C)OCCn2c1nc1c(N3CCOCC3)nc(-c3ccc(N4CCOCC4)nc3)nc12 [Compound 132, 6,6-dimethyl-4-morpholino-2-(6-morpholinopyridin-3-yl)-8,9-dihydro-6H-[1,4]oxazino[3,4-e]purine]",> 695
19,"CN1CCN(c2ccc(-c3nc(N4CCOCC4)c4nc5n(c4n3)CCOC5(C)C)cc2)CC1 [Compound 156, 6,6-dimethyl-2-(4-(4-methylpiperazin-1-yl)phenyl)-4-morpholino-8,9-dihydro-6H-[1,4]oxazino[3,4-e]purine]",> 695
20,"CC1(C)OCCn2c1nc1c(N3CCOCC3)nc(-c3cccc(N4CCOCC4)c3)nc12 [Compound 145, 6,6-dimethyl-4-morpholino-2-(3-morpholinophenyl)-8,9-dihydro-6H-[1,4]oxazino[3,4-e]purine]",> 695
21,"CC1(C)OCCn2c1nc1c(N3CCOCC3)nc(-c3cccc(CC#N)c3)nc12 [Compound 144, 2-(3-(6,6-dimethyl-4-morpholino-8,9-dihydro-6H-[1,4]oxazino[3,4-e]purin-2-yl)phenyl)acetonitrile]",> 695
22,"CN1CCN(c2cc(-c3nc(N4CCOCC4)c4nc5n(c4n3)CCOC5(C)C)ccn2)CC1 [Compound 130, 6,6-dimethyl-2-(2-(4-methylpiperazin-1-yl)yridine-4-yl)-4-morpholino-8,9-dihydro-6H-[1,4]oxazino[3,4-e]purine]",> 695
23,"CN1CCN(C(=O)c2ccc(-c3nc(N4CCOCC4)c4nc5n(c4n3)CCOC5(C)C)cc2)CC1 [Compound 161, (4-(6,6-dimethyl-4-morpholino-8,9-dihydro-6H-[1,4]oxazino[3,4-e]purin-2-yl)phenyl)(4-methylpiperazin-1-yl)methanone]",> 695
24,"CN1CCN(c2ccc(-c3nc(N4CCOCC4)c4nc5n(c4n3)CCOC5(C)C)cn2)CC1 [Compound 149, 6,6-dimethyl-2-(6-(4-methylpiperazin-1-yl)yridine-3-yl)-4-morpholino-8,9-dihydro-6H-[1,4]oxazino[3,4-e]purine]",> 695
25,"CC1(C)OCCn2c1nc1c(N3CCOCC3)nc(-c3ccc(O)nc3)nc12 [Compound 137, 5-(6,6-dimethyl-4-morpholino-8,9-dihydro-6H-[1,4]oxazino[3,4-e]purin-2-yl)pyridine-2-ol]",> 695

# System: MDA-MB-361.1
# Test: In vitro cell proliferation assay (CellTiter-Glo), MDA-MB-361.1
# Assay type: cell-based
# Settings: Cell line: MDA-MB-361.1; Tissue type: breast; Mutation Status: PI3K; read-out: EC50 (μmole)
# Procedure: (§1) Efficacy of Formula I compounds was measured by a cell proliferation assay employing the following protocol (Promega Corp. Technical Bulletin TB288; Mendoza et al (2002) Cancer Res. 62:5485-5488):
# (§2) 1. An aliquot of 100 μl of cell culture containing about 10^4 cells (PC3, Detroit562, or MDAMB361.1) in medium was deposited in each well of a 384-well, opaque-walled plate.
# (§3) 2. Control wells were prepared containing medium and without cells.
# (§4) 3. The compound was added to the experimental wells and incubated for 3-5 days.
# (§5) 4. The plates were equilibrated to room temperature for approximately 30 minutes.
# (§6) 5. A volume of CellTiter-Glo® Reagent equal to the volume of cell culture medium present in each well was added.
# (§7) 6. The contents were mixed for 2 minutes on an orbital shaker to induce cell lysis.
# (§8) 7. The plate was incubated at room temperature for 10 minutes to stabilize the luminescence signal.
# (§9) 8. Luminescence was recorded and reported in graphs as RLU=relative luminescence units.
# (§10) Alternatively, cells were seeded at optimal density in a 96 well plate and incubated for 4 days in the presence of test compound. Alamar Blue™ was subsequently added to the assay medium, and cells were incubated for 6 hr before reading at 544 nm excitation, 590 nm emission. EC50 values were calculated using a sigmoidal dose response curve fit. The term EC50 refers to the half maximal effective concentration and is the concentration at which a drug induces a response halfway between the baseline and maximum after some specified exposure time. It is commonly used as a measure of drug potency.
# (§11) The anti-proliferative effects of Formula I exemplary compounds were measured by the CellTiter-Glo® Assay against various tumor cell lines, including the following: […]
row,SMILES,EC50 [nM]
1,"CC1c2nc3c(N4CCOCC4)nc(-c4cnc(N)nc4)nc3n2CCN1C (centres unmarked) [Compound 176, 5-(6,7-dimethyl-4-morpholino-6,7,8,9-tetrahydropyrazino[2,1-e]purin-2-yl)pyrimidin-2-amine]",889
2,"Nc1ncc(-c2nc(N3CCOCC3)c3nc4n(c3n2)CCO[C@H]4C(F)(F)F)cn1 [Compound 139, (R)-5-(4-morpholino-6-(trifluoromethyl)-8,9-dihydro-6H-[1,4]oxazino[3,4-e]purin-2-yl)pyrimidin-2-amine]",424

# System: PC3
# Test: In vitro cell proliferation assay (CellTiter-Glo), PC3
# Assay type: cell-based
# Settings: Homo sapiens, PC-3; Cell line: PC3; Tissue type: prostate; Mutation Status: PTEN; read-out: EC50 (μmole)
# Procedure: as §1, §2, §3, §4, §5, §6, §7, §8, §9, §10, §11
row,SMILES,EC50 [nM]
1,"CC1c2nc3c(N4CCOCC4)nc(-c4cnc(N)nc4)nc3n2CCN1C (centres unmarked) [Compound 176, 5-(6,7-dimethyl-4-morpholino-6,7,8,9-tetrahydropyrazino[2,1-e]purin-2-yl)pyrimidin-2-amine]",1900
2,"Nc1ncc(-c2nc(N3CCOCC3)c3nc4n(c3n2)CCO[C@H]4C(F)(F)F)cn1 [Compound 139, (R)-5-(4-morpholino-6-(trifluoromethyl)-8,9-dihydro-6H-[1,4]oxazino[3,4-e]purin-2-yl)pyrimidin-2-amine]",697
